Measured values taken from patent US20250018030A1, “PHARMACEUTICAL COMPOSITION FOR PROMOTING CANCER IMMUNOTHERAPY AND METHOD FOR PROMOTING CANCER IMMUNOTHERAPY” (China Medical University, priority 2023, published 2025).

Tests used:
Format in all cases: cell-based, Mouse
Tc1 cells [1] = assay: RNA-seq gene expression analysis of genipin-treated Tc1 cells
Description: For RNA-seq analysis, the differential gene expression analysis was conducted by RNA-seq quantification following the procedure of Illumina and was performed by Genomics (Taiwan). Low-quality bases and sequencing adapters in the raw data generated from the Illumina sequencer were removed, and the final library quality was assessed on the Agilent Bioanalyzer 2100 system. The gene expression profiles in the genipin-treated and control Tc1 cells were analyzed and compared. The differentially expressed genes were calculated by EBSeq, and functional analysis, such as (gene ontology) GO analysis, was performed using cluster Profiler. For real-time PCR, total RNA was extracted using the RNeasy Micro Kit (Qiagen), and cDNA was synthesized with the PrimeScript™ RT reagent kit (TakaRa). Real-time PCR amplification of IFN-γ was performed in triplicate using TaqMan Gene Expression Assay (Mm01168134_m1) in a Step One Plus system (Applied Biosystems). 18S primers were used as endogenous controls, and the relative gene expression was calculated using the 2^ΔΔCt method.

Tc1 cells [2] = assay: Intracellular cytokine staining / flow cytometry of genipin-treated skewed Tc1 cells
Description: (§1) Mouse lymph nodes and spleens were harvested, and naïve CD4 or CD8 T cells isolated via magnetic bead separation (STEMCELL Technologies) and activated in α-CD3 (10 μg/ml) and α-CD28 (1 μg/ml) pre-coated 96-well plates. Skewing conditions were as follows: Th1 cells/Tc1 cells ([…] 10 μ/ml α-IL-4), Th2 cells/Tc2 cells (20 ng/ml IL-4 and 10 μ/ml α-IFN-γ), Th17 cells/Tc17 cells (20 ng/ml IL-6, 1.25 ng/ml […], 20 ng/ml IL-1β, 20 ng/ml IL-23, 10 μg/ml α-IFN-γ and 10 μg/ml α-IL-4), and Treg cells (5 ng/ml TGF-β, 10 μg/ml α-IFN-γ and 10 μg/ml α-IL-4) in the indicated medium. Cells were cultured for 4-5 days followed by treatment with genipin (3.125 μM, 6.25 μM, 12.5 μM) or DMSO for 12-16 hours.
(§2) Monoclonal antibodies were purchased from BD Biosciences or eBioscience. For intracellular cytokine staining (ICS), cells were first restimulated by PMA/ionomycin for 5 hours in the presence of GolgiStop (BD Biosciences), followed by surface epitope staining markers before being fixed/permeabilized (BD Cytofix/Cytoperm™) and stained with antibodies targeting intracellular antigens. Cells were finally fixed with 1.5% formaldehyde for 10 minutes at room temperature and analyzed on a FACSVerse flow cytometer (BD Bioscience). Data were analyzed using FlowJo software (Tree Star Inc.).

Tc1 cells [3] = assay: Metabolic assays (Seahorse ECAR/OCR, mitochondrial pyruvate and acetyl CoA) in Tc1 cells
Description: The real-time extracellular acidification rate (ECAR) and oxygen consumption rate (OCR) were measured using a Seahorse XF24 analyzer (Seahorse Bioscience), within XF Glycolysis Stress and XF Cell Mito Stress Test kits used to assess glycolysis and oxidative phosphorylation. 5×10^5 cells exposed to the indicated treatments were plated in an XF-24 microplate coated with Cell-Tak (Corning) one day before the assay. ECAR and OCR were measured after metabolic manipulations by the addition of oligomycin, carbonyl cyanide-p-trifluoromethoxy-phenylhydrazone (FCCP), 2-deoxyglucose (2-DG) and rotenone/anti-mycin A (R/A). Calculations were conducted with Agilent Seahorse Wave Software for Agilent Seahorse XF analyzers (Seahorse Bioscience). For isolation of mitochondria, Tc1 cells were frozen and thawed to weaken the membranes and resuspended in Reagent A of a mitochondria isolation kit (ab110170, Abcam), before being homogenized and centrifuged at 1,000×g for 10 minutes at 4° C. Supernatant was saved (SN #1) and the pellet resuspended in Reagent B. After homogenization and centrifugation, supernatant was saved (SN #2). SN #1 and SN #2 were mixed thoroughly and centrifuged at 12,000×g for 15 minutes at 4° C. The pellet was collected in Reagent C supplemented with protease inhibitors and was used for the pyruvate and acetyl COA assays. Briefly, the mitochondrial pyruvate and acetyl CoA levels in the Tc1 cells were assessed using a commercial Pyruvate Assay Kit (ab65342, Abcam) and PicoProbe Acetyl COA Assay Kit (ab87546, Abcam) according to the manufacturer's instructions.

Th17 cells = assay: Cytokine staining of genipin-treated skewed Th17 cells; conditions: data not shown
Description: as §1, §2

[4] = genipin-treated Tc1 cells, FIG. 2D
[5] = genipin-treated Tc1 cells, data not shown

COC(=O)C1=CO[C@@H](O)[C@@H]2C(CO)=CC[C@H]12 [genipin]
Expression of genes that control IFN-γ signaling, leukocyte activation and bioenergetic metabolism (GOBP enrichment) (Tc1 cells [1]; genipin 12.5 μM, FIG. 2C): correlated positively | Expression of genes related to T cell activation and migration (Tbx21, Ccl5, Eomes, Il12rb2, Ctla2a, Ctla2b) (Tc1 cells [1]; [4]): augmented the expression | Expression of glycolytic pathway genes (Hk2, Gck, Pfkl, Aldoc, Pgam1, Eno2, Ldha) (Tc1 cells [1]; [4]): increased expression | IL-12R expression in Tc1 cells (Tc1 cells [2]; genipin 12.5 μM, FIG. 2O-2P): increased IL-12R expression | IFN-γ production in Tc1 cells (Tc1 cells [2]; genipin 3.125, 6.25, 12.5 μM, 12-16 hours, FIG. 1C-1D): promoted IFN-γ | T-bet expression in IFN-γ+CD8+ T cell population of Tc1 cells (Tc1 cells [2]; genipin-treated Tc1 cells, FIG. 1J): elevated the expression of T-bet | Glycolysis readout, ECAR (Tc1 cells [3]; genipin 12.5 μM, Seahorse XF24, FIG. 2E): no functional impact | Oxidative phosphorylation, OCR (Tc1 cells [3]; genipin 12.5 μM, Seahorse XF24, FIG. 2F): promoted oxidative phosphorylation | Acetyl CoA level in the mitochondria (Tc1 cells [3]; genipin-treated Tc1 cells, FIG. 2G): increased the level of acetyl CoA | Mitochondrial pyruvate (Tc1 cells [3]; genipin-treated Tc1 cells, FIG. 2H): parallel increase | Acetyl CoA level in the cytosol (Tc1 cells [3]; [5]): increased the level of acetyl CoA | Cytosolic fraction of pyruvate (Tc1 cells [3]; [5]): decreased | IFN-γ in Th17 cells (Th17 cells): increased IFN-γ | IL-17 expression in Th17 cells (Th17 cells): without an impact on IL-17 expression
